From PubChem BioAssay (NCI)
Where “and” joins values, the source holds several entries; their conditions need not be identical. Identical values can stand only once.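 Protocol summary: plate cells (96-well), add compound at 5 concentrations, incubate 48 h, interpolate endpoints linearly. GI50 marks 50% less growth. At the TGI there is no net growth.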

tested on: MDA-MB-468 breast; test: NCI-60 cell line screen, 48 h

Row | SMILES | GI50 | TGI
1 | CC(C)CCSC1=CC(=O)c2ccccc2C1=O | 0.43 µM | 2.19 µM
2 | O=C1CC2(CCOCC2)Oc2ncccc21 | 3.23 µM | 15.3 µM
3 | CCNCCC1(CC)C(=O)NC(=O)NC1=O | > 100 µM | > 100 µM
4 | Cc1cc(C(=O)Nc2nc3cccc(Cl)c3n2[C@@H]2CCCCN(C(=O)/C=C/CN(C)C)C2)ccn1 | 0.102 µM | 1.27 µM
5 | O=C1/C=C/[C@@H](O)[C@@H]2C[C@@H](O)C[C@H]2/C=C/CCC[C@H](CCc2ccc(C(F)(F)F)cc2)O1 | 0.0281 µM | 0.0829 µM
6 | CC(C)CC1C(=O)N2CCC[C@H]2C2(O)O[C@](NC(=O)C3C=C4c5cccc6[nH]c(Br)c(c56)C[C@H]4N(C)C3)(C(C)C)C(=O)N12 (stereo partly specified) | 3.09 µM | 39.3 µM
7 | CN[C@@H](C)C(=O)N[C@H]1CN(C(=O)CC(C)C)CC[C@H]2CC[C@@H](C(=O)NC(c3ccccc3)c3ccccc3)N2C1=O | 39.2 µM | > 100 µM
8 | NC(=NCCCC1(c2ccccc2)CCCC1)Nc1ccc(Cl)cc1 | 1.65 µM | 3.25 µM
9 | Cc1ncc(C(=O)Nc2ccc(CN3CCN(C)CC3)c(C(F)(F)F)c2)cc1C#Cc1cnc(N)c2cnccc12 | 0.169 µM | 1.69 µM
10 | NC(=O)C1c2ccccc2C=Cc2ccccc21 | 78.6 µM | > 100 µM
11 | CCC(CC)n1c(=O)c(SC2=NC3C(NN2)N(CC)C(=O)N3CC)c(C(=O)O)c2ccccc21 (stereo unspecified) | 0.92 µM | 27.8 µM
12 | COc1ccc(CCN2CCCN3C2=Nc2ccccc2S3(=O)=O)cc1 | 0.312 µM | > 100 µM
13 | CCCCCCCCCCCCNC(=O)[C@H]1CSC(c2cc3ccccc3s2)N1 (stereo partly specified) | 1.09 µM | 4.11 µM
14 | C[C@@H](N)C1CCC(C(=O)Nc2ccncc2)CC1 (stereo partly specified) | > 100 µM | > 100 µM
15 | O=C1Oc2ccccc2C(=O)/C1=C/N1C(=O)/C(=C/c2ccc3c(c2)OCO3)SC1=S | 12.1 µM | 42 µM
16 | COC(=O)[C@H]1[C@@H](O)[C@@]2(O)c3c(OC)cc(O[C@@H]4O[C@@H]([C@H](O)CO)CO[C@H]4OC)cc3O[C@@]2(c2ccc(OC)cc2)[C@@H]1c1ccccc1 | 0.00293 µM | 0.0112 µM
17 | O=C(CCCCCCCn1cc(-c2cccnc2)nn1)Nc1ccccc1-c1ccccc1 | 4.74 µM | > 51.6 µM
18 | O=C1OC2C(O)COC2(O)C1(O)C(C[N+](=O)[O-])c1ccc(Cl)cc1 (stereo unspecified) | 16.9 µM | 44 µM
19 | CNC(=O)c1c(NC(=O)c2ccc(C(F)(F)F)cc2)sc2c1CCC(=O)C2 | 0.924 µM | 3.8 µM
20 | O=C1/C(=C\c2ccc(F)cc2)CN(C(=O)c2ccc([N+](=O)[O-])cc2)C/C1=C\c1ccc(F)cc1 | 1.38 µM | 3.68 µM
21 | Cc1ccc2c(c1)C(C)Cc1c(ncnc1-n1cnc3cc(C)ccc31)N2C (stereo unspecified) | 0.0414 µM | 19 µM

Row | SMILES | GI50 | TGI
22 | O=C(c1ccc(OCCN2CCCCC2)cc1)c1c(-c2ccc(O)cc2)sc2cc(O)ccc12 | 3.04 µM and 3.13 µM | 15.8 µM and 12.2 µM
23 | Nc1ccccc1SC(CC(=O)c1ccccc1)c1ccc([N+](=O)[O-])cc1 (stereo unspecified) | 14.4 µM | 31 µM
24 | Cc1ccc(S(=O)(=O)Oc2ccc([N+](=O)[O-])cc2[N+](=O)[O-])cc1 | 13.2 µM | 28.4 µM
25 | COc1ccccc1-c1cc(/C=C2\C(=O)Nc3ncc(Br)cc32)cc(Br)c1O | 7.4 µM | > 25 µM
26 | C/C1=C/C(=O)O[C@@H]2C[C@@H](CC[C@H](C)/C=C\C=C\CC1)O[C@@](O)([C@@H]1CSC(=O)N1CO)C2 | 0.0243 µM | 0.0765 µM
27 | COC(=O)[C@H]1C(=O)[C@@]2(C)[C@H]([C@H](OC(=O)c3ccccc3)[C@]3(O)C[C@H](OC(=O)[C@H](O)[C@@H](NC(=O)c4ccc(F)cc4)c4ccccc4)C(C)=C1C3(C)C)[C@]1(OC(C)=O)CO[C@@H]1C[C@@H]2O | 0.00874 µM | 6.46 µM
28 | CN1CCC(CNc2ccc3ncc(-c4cccc(OC(F)(F)F)c4)n3n2)CC1 | 1.24 µM and 1.11 µM | 2.74 µM and 3.28 µM
29 | COc1ccccc1/C=C/C(=O)c1c(O)cc2occc2c1OC | 10.3 µM | 45.5 µM
30 | N#Cc1nc(-c2ccccc2)oc1S(=O)(=O)N1CCCCC1 | 10.2 µM | 28.5 µM
31 | COc1cccc(Cn2c(-c3nonc3N)nc3ccccc32)c1 | 0.312 µM | 
32 | CCN(CC)CCCC(C)Nc1cc(-c2ccc(C(F)(F)F)cc2)c(C#N)c2nc3ccccc3n12 (stereo unspecified) | 1.75 µM | 3.35 µM
33 | CCN1C(=O)N(CC)C2C1NN=c1s/c(=C\c3ccccc3F)c(=O)n12 (stereo unspecified) | 0.027 µM | > 48.1 µM
34 | Cn1cc(-c2csc(-c3cn(C)c4ccc(Br)cc34)n2)c2cnccc21 | 1.79 µM | 3.46 µM
35 | COc1cc2c(F)nccc2cc1C(=O)N[C@@H](c1ccc(F)c(Cl)c1)[C@@H]1C[C@@H](O)CN1 | 0.0527 µM | 2.33 µM
36 | Cc1cccc(-c2nn3c(c2-c2ccnc4ccc(C(N)=O)cc24)CCC3)n1 | > 100 µM | > 100 µM
37 | O=Nc1ccc(O)c2ccccc12 | 5.85 µM | 27.4 µM
38 | COc1ccc(-c2nsc3c2NC(=O)CC3c2ccc(F)cc2)cc1 (stereo unspecified) | 2.18 µM | > 30 µM
39 | O=C(N/N=C/c1ccccc1O)C(O)(c1ccccc1)c1ccccc1 | 4.62 µM | > 100 µM
40 | COc1cc(-c2nc(NC(C)=O)sc2-c2ccnc(NCCNS(=O)(=O)c3ccccc3)n2)ccc1Cl | 2.56 µM | 9.61 µM
41 | C=C(C)[C@@H]1CC[C@]2(C(N)=O)CC[C@]3(C)[C@H](CC[C@@H]4[C@@]5(C)CC[C@H](O)C(C)(C)[C@@H]5CC[C@]43C)[C@@H]12 | 3.2 µM | 11.9 µM
